Assay: Human HepG2 cell viability assay in 384 well format
Type: toxicity, cell-based
Design: dose 125 nL, time 70.5 hour; concentration not given beside the values
Conditions: HepG2 cells, read-out: Inhibition

Structure (SMILES)	cytotoxicity at 70.5 h [%]
Cc1ccccc1OCCSc1nnc(CC2CCS(=O)(=O)C2)n1C (stereo unspecified)	-7.8
O=C(NCCN1CCOCC1)c1cc(Cl)c2c(c1)OCCCO2	-5.1
Cc1cccc(Nc2c(C#N)c(=O)n(C)c(=O)n2C)c1	-3.97
COc1ccc(CNC(=O)C2=NN(c3ccc(C)cc3)C(=O)CN2)cc1	-5.36
Cc1noc(CN2CCN(CCS(C)(=O)=O)CC2)n1	-2.73
CC(C)N1CC(C(=O)NC(C)(C)CNC(=O)OC(C)(C)C)CC1=O (stereo unspecified)	-3.84
CC1CCCCN1C(=O)Cn1cc(I)cn1 (stereo unspecified)	-1.82
CC1CCN(C(=O)Cn2cc(I)cn2)CC1	0.739
CC(C)Cc1ccc(C(=O)Cn2cnnc2[S+](C)[O-])cc1 (stereo unspecified)	-3.94
C[S+]([O-])c1nncn1CC(=O)c1cccc(Br)c1 (stereo unspecified)	-3.69
CC(NC(=O)Nc1ccc(OC2CCCC2)cc1)c1nc[nH]n1 (stereo unspecified)	12.8
CC(NC(=O)Nc1cc(F)cc(F)c1)c1nc[nH]n1 (stereo unspecified)	-5.9
CC(C)c1nn(C)c(N(C)C)c1CNCc1cccnc1	-1.06
COc1ccc(NC(=O)NC(C)c2nc[nH]n2)cc1Cl (stereo unspecified)	-2.57
Cc1noc(CN2CCN(CCO)CC2)n1	-3.7
CCC(C)(NCC(=O)OC)c1nc(C)cs1 (stereo unspecified)	-1.12
CC(C)(C)OC(=O)NCC1CCCCN1Cc1cccc(C(N)=O)c1 (stereo unspecified)	1.21
Cc1nn(C)c(N(C)C)c1CNC(C)c1cccnc1 (stereo unspecified)	-6.25
COc1ccccc1C(CNC(=O)NCc1cc[nH]n1)N1CCCC1 (stereo unspecified)	12.7
Cc1cnn(CC2CCCN2Cc2cc(=O)n3cc(C)ccc3n2)c1 (stereo unspecified)	-1.28
CN(C)C(CNC(=O)NCc1cc[nH]n1)c1ccco1 (stereo unspecified)	0.0309
Clc1cccc(CNC2CCN(CCc3ccncc3)CC2)c1	0.526
CC(C)n1c(C2CCCN(CC(=O)NC3CC3)C2)nc2ccccc21 (stereo unspecified)	-1.26
CC(NCc1ccc(-c2ccc(F)cc2)o1)c1nnc2n1CCC2 (stereo unspecified)	-9.83
Cc1cc(NC(=O)c2nc(N3CCCC3)ncc2Cl)ccc1Br	-5.96

Structure (SMILES)	cytotoxicity at 70.5 h [%]
NCC1(c2cccc(F)c2)CCOCC1	19.1
CCN(CC)c1ccc(NC(=O)N2CCc3sccc3C2)cn1	-2.76
O=C(Nc1ccc(N2CCOCC2)nc1)N1CCc2sccc2C1	46.1
COc1cc(CN(C)C(=O)NCCNC(=O)C2CC2)ccc1SC	-16
CCN(CCCNC(=O)c1ccc(C)[nH]c1=O)S(C)(=O)=O	-0.303
O=C(c1cc2c([nH]c1=O)CCC2)N1CCCC1c1ccccc1 (stereo unspecified)	-4.54
O=C(c1cc2c([nH]c1=O)CCC2)N1CCCC1c1ccccn1 (stereo unspecified)	-2.83
COCCN(CCC#N)S(=O)(=O)c1ccc(F)cc1F	0.44
CCc1nc(CCNC(=O)NC2CCN(C(C)C)C2)sc1C (stereo unspecified)	-3.64
CSc1cc2c(cc1NC(=O)NCCn1ccnc1)OCCO2	-3
O=C(Nc1cc(Cl)ccn1)c1nc(N2CCCC2)ncc1Cl	-2.78
CCCn1nc2c(cc1=O)CN(Cc1c(C)noc1C)CC2	-6.66
CCC(C)(CO)NC(=O)Nc1cc2c(cc1SC)OCCO2 (stereo unspecified)	-1.22
CC(C(=O)Nc1ccnn1C(C)C)N1CCN(Cc2ccon2)CC1 (stereo unspecified)	1.23
O=C(Nc1ccc(CC(=O)N2CCSCC2)cc1)NC1CC1	14.5
CN1CCC(N(C)C(=O)CSc2ccc(F)c(F)c2)C1=O (stereo unspecified)	-2.06
CC(C)Nc1ncccc1C(=O)NCc1ccnn1C	6.47
CC(C)Nc1ncccc1C(=O)NCc1cnc(N(C)C)n1C	-14.4
CCN(Cc1cccc(-c2ccncc2)c1)S(N)(=O)=O	-2.79
Cc1cc(NCC2(O)CCOCC2)c2ccccc2n1	-4.68
CS(=O)(=O)NCCN1CCOC2(CCc3ccccc32)C1 (stereo unspecified)	-7.71
OC1(CNc2cc(C(F)(F)F)nc3ccccc23)CCOCC1	-4.81
CCOc1ccccc1C(CC(=O)Nc1ccccc1)NC(C)=O (stereo unspecified)	-6.59
CCCN(C(=O)c1ocnc1C)C1CCCN(Cc2ccccc2)C1 (stereo unspecified)	-5.56
CSc1ccc(NCc2csc(CS(C)(=O)=O)n2)cc1F	-1.97

Structure (SMILES)	cytotoxicity at 70.5 h [%]
O=C(N1CCC(Oc2ccncc2)C1)C1(c2cccc(F)c2)CC1 (stereo unspecified)	-1.35
CSc1ccc(NCc2csc(C)n2)cc1F	-0.888
CC(C)c1ccc(CCC(=O)N(C)C2CCN(C)C2=O)cc1 (stereo unspecified)	-1.43
c1ccc2c(c1)CCC21CN(CCc2ccncc2)CCO1 (stereo unspecified)	-4.57
Cc1noc(CNc2cccc(C(=O)N3CCCC(O)C3)c2)n1 (stereo unspecified)	-6.36
CCN(Cc1cccc(-c2ccncc2)c1)S(C)(=O)=O	-4.62
Cc1n[nH]c(C2CN(C(=O)c3ccc(=O)n(C)c3)CCO2)n1 (stereo unspecified)	25.4
CC(C)N(C)C(=O)C1CCN(Cc2cc3c(cc2O)CCC3)CC1	-5.17
Cc1cccn2cc(CN3CCCC(c4ccn[nH]4)C3)nc12 (stereo unspecified)	0.654
CN(Cc1ccsc1)C(=O)c1ccc(F)c(NS(C)(=O)=O)c1	-3.77
CN(CC(F)(F)F)C(=O)c1ccc(F)c(NS(C)(=O)=O)c1	-1.16
Cc1cc(NC(=O)CN2CCCC(Cn3cncn3)C2)no1 (stereo unspecified)	-3.46
CC(C)(C)NS(=O)(=O)c1ccccc1CNCc1ccccc1	-5.72
CC(C)c1cc(NC(=O)CN2CCCC(Cn3cncn3)C2)on1 (stereo unspecified)	17.9
O=C(Nc1ccnc2ccnn12)c1ccc(NC2CC2)nc1	-1.35
Cc1cccn2cc(CN3CCCC(c4noc(C5CC5)n4)C3)nc12 (stereo unspecified)	5.44
O=C(c1[nH]nc(C2CC2)c1Cl)N1CCN(C2CC2)C(=O)C1	-1.73
Cc1nn(C)c(C)c1OCC(=O)N1CCCC1	-6
O=c1[nH]c2ccccc2c(=O)n1Cc1nnnn1C1CC1	2.86
Cc1ccc(C(C)(O)CNC(=O)c2sccc2OC(F)F)o1 (stereo unspecified)	-12
Cc1ccc(C(C)(O)CNC(=O)c2scnc2C)o1 (stereo unspecified)	-3.68
CCC(C)(C)C(=O)NCCCOC1CCOC1 (stereo unspecified)	2.9
O=C(c1ncoc1C1CCCO1)N1CC2(CCCC2)c2ccccc21 (stereo unspecified)	-6.29
COCCN(C)c1ccc(NCc2cccnc2)nc1	5.65
O=C(c1cc[nH]c(=O)c1)N1CCn2c(nnc2-c2ccccc2)C1	-4.86

Structure (SMILES)	cytotoxicity at 70.5 h [%]
CCOC(C)c1nc(Cn2cc(C(=O)NC)ccc2=O)cs1 (stereo unspecified)	-4.29
Cc1cnn(C2CCCN(C(=O)c3c(C)oc(C)c3C)C2)c1 (stereo unspecified)	-0.501
CNC(=O)Cc1ccccc1NC(=O)C1CCCC1	29.2
CCC1CN(c2cnn(-c3ccccc3)c(=O)c2Cl)CCO1 (stereo unspecified)	-12.4
COc1ccc(C)cc1CCNS(C)(=O)=O	-10.4
COCCOCCNS(=O)(=O)C1CS(=O)(=O)c2ccccc21 (stereo unspecified)	-7.79
CCC(=O)N1CSCC1C(=O)Nc1ccccc1-c1cccs1 (stereo unspecified)	-9.09
CCC(=O)N1CCN(C(=O)Nc2ccccc2-c2cccs2)CC1	-5.63
Cn1ccnc1CCNS(=O)(=O)Cc1cccc(C#N)c1	-8.33
Cc1nc(C2(NCc3ccc(C#N)cc3F)CCCC2)no1	-18.6
CS(=O)(=O)N1CCC(CSc2ccccc2)C1 (stereo unspecified)	-13.4
O=C(NC1CCCN(c2ccc(OC(F)F)cc2)C1)c1cnccn1 (stereo unspecified)	-6.56
CC(C)NC(=O)CC(C)NC(=O)N(C)Cc1cc(Cl)cn1C (stereo unspecified)	-8.56
O=C(Nc1ccccc1-c1cccs1)N1CCN(CC(F)F)CC1	-11.6
Cc1cccc(C)c1CNC1(CCO)CCOCC1	-16
O=C(Nc1ccccc1-c1cccs1)N1CCOCC1	-13.2
CCCN(CCC)S(=O)(=O)NCCc1cc(C)ccc1OC	-8.2
CN(Cc1ccco1)C(=O)NCC(c1cccs1)N(C)C (stereo unspecified)	-11.2
CCN(Cc1ccco1)C(=O)NCC(c1cccs1)N(C)C (stereo unspecified)	20.6
CCc1ccc(CNc2ccccc2CN2CCC(O)CC2)o1	-9.23
COc1cc(OC)cc(C2(O)CCN(Cc3ncc(C)o3)CC2)c1	18.5
CC(C)c1nc2c(n1C)CCN(CCc1ccccn1)C2	-4.15
CCCS(=O)(=O)N1CCCC1c1cccc(N(C)C)c1 (stereo unspecified)	-11.2
CCN(CC)C(=O)C1CCN(c2ccc(Cl)cc2C#N)CC1	10.1
Cc1ccc(C2CSCCN2C(=O)c2ccnc(N(C)C)c2)o1 (stereo unspecified)	18.6

Structure (SMILES)	cytotoxicity at 70.5 h [%]
N#Cc1ccc(CN2CCNC(=O)C2c2cccs2)cc1 (stereo unspecified)	-3.15
CCCC(=O)N(C)c1cc(C#N)c2ccccc2n1	-2.82
CN(C(=O)CCc1nc(C2CC2)no1)c1cc(C#N)c2ccccc2n1	0.74
Cc1ccc(C2CSCCN2C(=O)c2cccs2)o1 (stereo unspecified)	19.9
Cc1cc(F)ccc1S(=O)(=O)N1CCN(C)c2ccncc21	4.79
O=C(NCC(CO)Cc1ccc(Cl)cc1)c1ccncc1F (stereo unspecified)	-1.03
CNC(=O)c1cc(C)ccc1NCc1cn2cc(C)ccc2n1	-2.87
COCCNC(=O)N1CCCCC1CNC(=O)Nc1ccccc1 (stereo unspecified)	-3.88
OC(COCc1cccs1)Cn1cc(-n2cccc2)cn1 (stereo unspecified)	2.56
CC(=O)Nc1cc2c(cc1C)OCO2	21.5
CC1c2cccn2CCN1C(=O)CCc1nc(C2CC2)no1 (stereo unspecified)	-8.57
CC(=O)N1CCN(C(C)c2ccc(Br)cc2)CC1 (stereo unspecified)	-0.505
COCCNC(=O)N1CCCC1COc1ccccc1 (stereo unspecified)	-8.27
CC(=O)N1CCSCC1c1ccc(C)o1 (stereo unspecified)	-8.59
OCCN1CCN(CCOCC(F)(F)F)CC1	10.9
Cc1cccc(CN(Cc2ccccn2)S(=O)(=O)N(C)C)c1	18.6
Fc1ccc(OCCNC2CCN(Cc3ccncc3)CC2)c(F)c1	12.1
Cc1cc(NCc2ccc(S(N)(=O)=O)cc2)nc(C)n1	-13.8
Cc1nc(C(C)C)sc1C(=O)NCC(C)(C)N1CCOCC1	-8.1
CC(C)C(Sc1nnc(NC2CC2)s1)C(=O)NCc1cccnc1 (stereo unspecified)	-15.5
Cc1nn(C)c(N(C)C)c1CNCc1cccc(CN(C)C)c1	-3.97

Reference: ChEMBL document CHEMBL3507680, “University of Dundee, Gates Library screen for HepG2 cell viability”
